Experimental data as given in ChEMBL document CHEMBL4616659, “Talarolactone A, an Isocoumarin Derivative Fused with Dihydrothiophene with Selective Antimigratory Activity from the Endolichenic Fungus Talaromyces sp” (J Nat Prod, 2020).
The source made the active and inactive calls. The calls are words filed in the database; no cut-off is given here.

What was measured:
[1] = Toxicity in zebrafish AB embryo up to 100 ug/ml after 24 to 88 hrs by inverted microscope; set-up: species or system Danio rerio; settings: in vivo
HepG2 [2] = test: Antimigratory activity against human HepG2 cells at 25 ug/ml measured up to 60 hrs by microscopic based wound healing assay; type: functional, cell-based
[3] = Cytotoxicity against human HBE cells at 6.25 to 50 ug/ml incubated for 24 hrs by MTT assay; type: cell-based
A549 = test: Cytotoxicity against human A549 cells at 6.25 to 50 ug/ml incubated for 24 hrs by MTT assay; type: functional, cell-based
Enterobacter cloacae = test: Antibacterial activity against Enterobacter cloacae ATCC 13047 up to 100 ug/ml incubated for 20 hrs by microbroth dilution method; type: functional, organism-based
HepG2 [4] = test: Cytotoxicity against human HepG2 cells at 6.25 to 50 ug/ml incubated for 24 hrs by MTT assay; type: functional, cell-based
[5] = Cytotoxicity against human THLE cells at 6.25 to 50 ug/ml incubated for 24 hrs by MTT assay; type: cell-based
Staphylococcus aureus [6] = test: Antibacterial activity against Staphylococcus aureus ATCC 29213 up to 100 ug/ml incubated for 20 hrs by microbroth dilution method; type: functional, organism-based
Staphylococcus aureus [7] = test: Antibacterial activity against Methicillin-resistant Staphylococcus aureus up to 100 ug/ml incubated for 20 hrs by microbroth dilution method; type: functional, organism-based
Salmonella typhimurium = test: Antibacterial activity against Salmonella typhimurium ATCC 14028 up to 100 ug/ml incubated for 20 hrs by microbroth dilution method; type: functional, organism-based; settings: Salmonella enterica subsp. enterica serovar Typhimurium
MDA-MB-231 = test: Cytotoxicity against human MDA-MB-231 cells at 6.25 to 50 ug/ml incubated for 24 hrs by MTT assay; type: functional, cell-based
Acinetobacter baumannii = test: Antibacterial activity against Acinetobacter baumannii ATCC 19004 up to 100 ug/ml incubated for 20 hrs by microbroth dilution method; type: functional, organism-based
Escherichia coli = test: Antibacterial activity against Escherichia coli ATCC 25922 up to 100 ug/ml incubated for 20 hrs by microbroth dilution method; type: functional, organism-based
Klebsiella pneumoniae [8] = test: Antibacterial activity against Klebsiella pneumoniae ATCC 43816 up to 100 ug/ml incubated for 20 hrs by microbroth dilution method; type: functional, organism-based
Klebsiella pneumoniae [9] = test: Antibacterial activity against Klebsiella pneumoniae harboring NDM1 mutant up to 100 ug/ml incubated for 20 hrs by microbroth dilution method; type: functional, organism-based
MCF7 = test: Cytotoxicity against human MCF7 cells at 6.25 to 50 ug/ml incubated for 24 hrs by MTT assay; type: functional, cell-based

Compound: COc1cc(C(=O)O)c2c3c1C(=O)O[C@@H](C)[C@@H]3CS2
- Activity [1]: Non-Toxic
- Activity (HepG2 [2]): Active
- Activity [3]: Non-Toxic
- Activity (A549): inactive
- Activity (Enterobacter cloacae): inactive
- Activity (HepG2 [4]): inactive
- Activity [5]: Non-Toxic
- Activity (Staphylococcus aureus [6]): inactive
- Activity (Staphylococcus aureus [7]): inactive
- Activity (Salmonella typhimurium): inactive
- Activity (MDA-MB-231): inactive
- Activity (Acinetobacter baumannii): inactive
- Activity (Escherichia coli): inactive
- Activity (Klebsiella pneumoniae [8]): inactive
- Activity (Klebsiella pneumoniae [9]): inactive
- Activity (MCF7): inactive
